Assay results: US20250313546A1, “NUCLEIC ACID BINDERS” (UNIVERSITY OF STRATHCLYDE, priority 2022, published 2025)
In brackets after ≈: the same amount, converted by molar mass. Where two headings read alike, the source gives them in different places.

Legend:
Blastomyces dermatitidis = test: Expanded set of filamentous fungi, MIC broth microdilution (CLSI); type: cell-based
Rhizopus arrhizus = test: as above; type: cell-based
Candida parapsilosis = test: Expanded set of yeasts, MIC broth microdilution (CLSI); type: cell-based; details: MIC at 50% inhibition; for MIC50: Lodderomyces parapsilosis
C. neoformans (F10025) = details: Cryptococcus neoformans, read-out: MIC99 C. neoformans
Paecilomyces variotii = test: Expanded set of filamentous fungi, MIC broth microdilution (CLSI); type: cell-based; details: isolate MYA-3630, MIC at 50% inhibition
Fusarium solani = test: as above; type: cell-based; details: MIC at 50% inhibition
Aspergillus flavus = test: as above; type: cell-based; details: MIC at 50% inhibition; for MIC50: Aspergillus flavus
Fusarium oxysporum = test: as above; type: cell-based; details: MIC at 50% inhibition
C. albicans (ATCC 90028) = details: Candida albicans, ATCC90028, read-out: MIC99 C. albicans
Experimental: (§2) The Minimum Inhibitory Concentration (MIC, at 99% inhibition) of the compounds was determined using the broth microdilution method as recommended by EUCAST (EUCAST Definitive Document E.DEF 9.3.2, Method for the determination of broth dilution minimum inhibitory concentrations of antifungal agents for conidia forming moulds and EUCAST Definitive Document E.DEF 7.3.2 Method for the determination of broth dilution minimum inhibitory concentrations of antifungal agents for yeasts).

C. krusei = test: Expanded set of yeasts, MIC broth microdilution (CLSI); type: cell-based; details: Pichia kudriavzevii, ATCC6258; isolate ATCC 6258; MIC at 50% inhibition
A. flavus (CBS 128.202) = details: Aspergillus flavus, CBS128, read-out: MIC99 A. flavus
Experimental: as §2

Aspergillus fumigatus = test: Expanded set of filamentous fungi, MIC broth microdilution (CLSI); type: cell-based
Candida auris (H.17.157) = details: Candidozyma auris, read-out: MIC99 Candida auris
C. albicans = test: Expanded set of yeasts, MIC broth microdilution (CLSI); type: cell-based; details: MIC at 50% inhibition; for MIC50: Candida albicans
C. glabrata = test: as above; type: cell-based; details: Nakaseomyces glabratus, MIC at 50% inhibition
C. auris = test: as above; type: cell-based; details: MIC at 50% inhibition
[1] = system: Scedosporium prolificans (F2746); details: Lomentospora prolificans, read-out: MIC99 Scedosporium prolificans
Experimental: as §2

C. guilliiermondii = test: Expanded set of yeasts, MIC broth microdilution (CLSI); type: cell-based; details: MIC at 50% inhibition
[2] = system: Enterococcus faecalis (ATCC 51299); test: Antibacterial MIC, broth microdilution (CLSI); type: cell-based; details: Enterococcus faecalis, ATCC51299; read-out: MIC80 E. faecalis
[3] = system: PolyAU double stranded RNA; test: Fluorescence intercalator displacement (FID) assay, SYBR-safe probe; details: 20 μM compound, 30° C., lower % = stronger binding
Outline: (§1)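 Probe displacement was measured at 30 °C in 1 mM phosphate pH 7.4 containing SybrSafe (12500-fold dilution), 3.76 ng/mL nucleic acid (salmon dsDNA or polyAU dsRNA) and 20 μM compound. Fluorescence loss is normalised between probe-only and probe-plus-nucleic-acid controls.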

[4] = system: Genomic double stranded DNA (salmon); test: as above; details: 20 μM compound, 30° C., lower % = stronger binding
Outline: as §1

**Q.** `C/N=C(\CCNC(=O)c1cc(NC(=O)c2cc(NC(=O)c3ccc(/C=C/c4ccc(N(C)C)cc4)nc3)cn2C)cn1C)NC` [Ia8, 6-((E)-4-(dimethylamino)styryl)-N-(1-methyl-5-((1-methyl-5-(((E)-3-(methylamino)-3-(methylimino)propyl)carbamoyl)-1H-pyrrol-3-yl)carbamoyl)-1H-pyrrol-3-yl)nicotinamide] was tested. Which MIC50 (Blastomyces dermatitidis; isolate BD1, MIC at 50% inhibition) did it give?
**A.** Its MIC50 is 1 to 8 µg/mL (≈ 1.64 to 13.1 µM).

**Q.** What about the MIC50 (Blastomyces dermatitidis; isolate BD2, MIC at 50% inhibition) of the same molecule?
**A.** The MIC50 was 1 to 8 µg/mL (≈ 1.64 to 13.1 µM).

**Q.** What about the MIC50 (Blastomyces dermatitidis; isolate BD3, MIC at 50% inhibition) of the same molecule?
**A.** Its MIC50 is 1 to 8 µg/mL (≈ 1.64 to 13.1 µM).

**Q.** And the MIC50 (Rhizopus arrhizus; isolate 99-880, MIC at 50% inhibition)?
**A.** Its MIC50 is 1 to 8 µg/mL (≈ 1.64 to 13.1 µM).

**Q.** What about the MIC50 (Rhizopus arrhizus; isolate 99-892, MIC at 50% inhibition) of the same molecule?
**A.** The MIC50 was 1 to 8 µg/mL (≈ 1.64 to 13.1 µM).

**Q.** And the MIC50 (Rhizopus arrhizus; isolate RA3, MIC at 50% inhibition)?
**A.** Its MIC50 is 1 to 8 µg/mL (≈ 1.64 to 13.1 µM).

**Q.** What about the MIC50 (Candida parapsilosis; ATCC22019, isolate ATCC 22019, read-out: MIC50 Candida parapsilosis) of the same molecule?
**A.** Its MIC50 is 1 to 8 µg/mL (≈ 1.64 to 13.1 µM).

**Q.** What about the MIC50 (Candida parapsilosis; isolate CP1, read-out: MIC50 C. parapsilosis) of the same molecule?
**A.** Its MIC50 is 1 to 8 µg/mL (≈ 1.64 to 13.1 µM).

**Q.** What about the “MIC50 C. parapsilosis” value (Candida parapsilosis; isolate CP2) of the same molecule?
**A.** The value was “** (** means 1 μg/mL < MIC50 <= 8 μg/mL)”.

**Q.** And the “MIC50 C. parapsilosis” value (Candida parapsilosis; isolate CP3)?
**A.** Its value is “** (** means 1 μg/mL < MIC50 <= 8 μg/mL)”.

**Q.** And the MIC99 (C. neoformans (F10025))?
**A.** The MIC99 was 5 to 25 µg/mL (≈ 8.2 to 41 µM).

**Q.** And the MIC50 (Paecilomyces variotii)?
**A.** The MIC50 was 1 to 8 µg/mL (≈ 1.64 to 13.1 µM).

**Q.** And the MIC50 (Fusarium solani; Fusarium solani, isolate F4)?
**A.** The MIC50 was at most 1 µg/mL.

**Q.** What about the “MIC50 Fusarium solani” value (Fusarium solani; isolate DI19-284) of the same molecule?
**A.** The value was “*** (*** means MIC50 <= 1 μg/mL)”.

**Q.** What about the MIC50 (Aspergillus flavus; ATCC204304, isolate ATCC 204304) of the same molecule?
**A.** The MIC50 was 1 to 8 µg/mL (≈ 1.64 to 13.1 µM).

**Q.** And the MIC50 (Aspergillus flavus; isolate Aflav2)?
**A.** Its MIC50 is 1 to 8 µg/mL (≈ 1.64 to 13.1 µM).

**Q.** What about the “MIC50 Aspergillus flavus” value (Aspergillus flavus; isolate Aflav3) of the same molecule?
**A.** The value was “** (** means 1 μg/mL < MIC50 <= 8 μg/mL)”.

**Q.** What about the MIC50 (Fusarium oxysporum; Fusarium oxysporum, isolate F2) of the same molecule?
**A.** The MIC50 was at most 1 µg/mL.

**Q.** And the “MIC50 Fusarium oxysporum” value (Fusarium oxysporum; isolate F3)?
**A.** The value was “*** (*** means MIC50 <= 1 μg/mL)”.

**Q.** And the MIC99 (C. albicans (ATCC 90028))?
**A.** Its MIC99 is 25 to 50 µg/mL (≈ 41 to 82 µM).

**Q.** And the MIC50 (C. krusei)?
**A.** The MIC50 was 1 to 8 µg/mL (≈ 1.64 to 13.1 µM).

**Q.** What about the MIC99 (A. flavus (CBS 128.202)) of the same molecule?
**A.** The MIC99 was under 5 µg/mL.

**Q.** And the MIC50 (Aspergillus fumigatus; isolate AF293, MIC at 50% inhibition)?
**A.** Its MIC50 is 1 to 8 µg/mL (≈ 1.64 to 13.1 µM).

**Q.** And the MIC50 (Aspergillus fumigatus; isolate DI15-106, MIC at 50% inhibition)?
**A.** Its MIC50 is 1 to 8 µg/mL (≈ 1.64 to 13.1 µM).

**Q.** And the MIC50 (Aspergillus fumigatus; isolate DI15-116, MIC at 50% inhibition)?
**A.** The MIC50 was 1 to 8 µg/mL (≈ 1.64 to 13.1 µM).

**Q.** And the MIC50 (Aspergillus fumigatus; isolate DI19-187, MIC at 50% inhibition)?
**A.** The MIC50 was 1 to 8 µg/mL (≈ 1.64 to 13.1 µM).

**Q.** And the MIC50 (Aspergillus fumigatus; isolate DI19-230, MIC at 50% inhibition)?
**A.** Its MIC50 is 1 to 8 µg/mL (≈ 1.64 to 13.1 µM).

**Q.** And the MIC50 (Aspergillus fumigatus; isolate DI19-231, MIC at 50% inhibition)?
**A.** The MIC50 was 1 to 8 µg/mL (≈ 1.64 to 13.1 µM).

**Q.** What about the MIC50 (Aspergillus fumigatus; isolate DI19-232, MIC at 50% inhibition) of the same molecule?
**A.** The MIC50 was 1 to 8 µg/mL (≈ 1.64 to 13.1 µM).

**Q.** What about the MIC50 (Aspergillus fumigatus; isolate DI19-233, MIC at 50% inhibition) of the same molecule?
**A.** The MIC50 was 1 to 8 µg/mL (≈ 1.64 to 13.1 µM).

**Q.** What about the MIC50 (Aspergillus fumigatus; isolate DI19-234, MIC at 50% inhibition) of the same molecule?
**A.** The MIC50 was 1 to 8 µg/mL (≈ 1.64 to 13.1 µM).

**Q.** What about the MIC50 (Aspergillus fumigatus; isolate DI19-236, MIC at 50% inhibition) of the same molecule?
**A.** The MIC50 was 1 to 8 µg/mL (≈ 1.64 to 13.1 µM).

**Q.** What about the MIC50 (Aspergillus fumigatus; isolate DI19-237, MIC at 50% inhibition) of the same molecule?
**A.** Its MIC50 is 1 to 8 µg/mL (≈ 1.64 to 13.1 µM).

**Q.** And the MIC50 (Aspergillus fumigatus; isolate DI20-95, MIC at 50% inhibition)?
**A.** Its MIC50 is 1 to 8 µg/mL (≈ 1.64 to 13.1 µM).

**Q.** What about the MIC50 (Aspergillus fumigatus; isolate DI20-103, MIC at 50% inhibition) of the same molecule?
**A.** Its MIC50 is 1 to 8 µg/mL (≈ 1.64 to 13.1 µM).

**Q.** What about the MIC99 (Candida auris (H.17.157)) of the same molecule?
**A.** The MIC99 was over 50 µg/mL.

**Q.** What about the MIC50 (C. albicans; isolate CA3) of the same molecule?
**A.** The MIC50 was 1 to 8 µg/mL (≈ 1.64 to 13.1 µM).

**Q.** And the MIC50 (C. albicans; isolate SC5314)?
**A.** Its MIC50 is 1 to 8 µg/mL (≈ 1.64 to 13.1 µM).

**Q.** What about the “MIC50 C. albicans” value (C. albicans; isolate CA90028) of the same molecule?
**A.** Its value is “** (** means 1 μg/mL < MIC50 <= 8 μg/mL)”.

**Q.** What about the MIC50 (C. glabrata; isolate 05-62) of the same molecule?
**A.** Its MIC50 is 1 to 8 µg/mL (≈ 1.64 to 13.1 µM).

**Q.** What about the MIC50 (C. glabrata; isolate 05-761) of the same molecule?
**A.** The MIC50 was 1 to 8 µg/mL (≈ 1.64 to 13.1 µM).

**Q.** What about the MIC50 (C. glabrata; isolate CG3) of the same molecule?
**A.** Its MIC50 is 1 to 8 µg/mL (≈ 1.64 to 13.1 µM).

**Q.** What about the MIC50 (C. auris; Candidozyma auris, isolate DI17-47) of the same molecule?
**A.** The MIC50 was 1 to 8 µg/mL (≈ 1.64 to 13.1 µM).

**Q.** And the “MIC50 C. auris” value (C. auris; isolate DI17-46)?
**A.** The value was “** (** means 1 μg/mL < MIC50 <= 8 μg/mL)”.

**Q.** And the “MIC50 C. auris” value (C. auris; isolate DI17-48)?
**A.** Its value is “** (** means 1 μg/mL < MIC50 <= 8 μg/mL)”.

**Q.** And the MIC99 [1]?
**A.** Its MIC99 is 5 to 25 µg/mL (≈ 8.2 to 41 µM).

**Q.** What about the MIC50 (C. guilliiermondii; isolate Cgui1) of the same molecule?
**A.** The MIC50 was 1 to 8 µg/mL (≈ 1.64 to 13.1 µM).

**Q.** What about the “MIC50 C. guilliiermondii” value (C. guilliiermondii; isolate Cgui2) of the same molecule?
**A.** The value was “** (** means 1 μg/mL < MIC50 <= 8 μg/mL)”.

**Q.** What about the “MIC50 C. guilliiermondii” value (C. guilliiermondii; isolate Cgui3) of the same molecule?
**A.** The value was “** (** means 1 μg/mL < MIC50 <= 8 μg/mL)”.

**Q.** And the MIC80 [2]?
**A.** The MIC80 was 25 to 100 µM (≈ 15.2 to 61 µg/mL).

**Q.** And the “% Normalised Fluorescence with polyAU RNA” value [3]?
**A.** The value was 9%.

**Q.** What about the “% Normalised Fluorescence with gDNA” value [4] of the same molecule?
**A.** The value was 4%.
